Where two headings read alike, the source gives them in different places.

Assay [1] has as its target T1, human recombinant M1 expressed in CHO cells (Homo sapiens, UniProt P11229).
T1 construct: purchased PerkinElmer, Inc., Wellesley, Mass; host or cells: CHO cells
T1 sequence (P11229 1-460): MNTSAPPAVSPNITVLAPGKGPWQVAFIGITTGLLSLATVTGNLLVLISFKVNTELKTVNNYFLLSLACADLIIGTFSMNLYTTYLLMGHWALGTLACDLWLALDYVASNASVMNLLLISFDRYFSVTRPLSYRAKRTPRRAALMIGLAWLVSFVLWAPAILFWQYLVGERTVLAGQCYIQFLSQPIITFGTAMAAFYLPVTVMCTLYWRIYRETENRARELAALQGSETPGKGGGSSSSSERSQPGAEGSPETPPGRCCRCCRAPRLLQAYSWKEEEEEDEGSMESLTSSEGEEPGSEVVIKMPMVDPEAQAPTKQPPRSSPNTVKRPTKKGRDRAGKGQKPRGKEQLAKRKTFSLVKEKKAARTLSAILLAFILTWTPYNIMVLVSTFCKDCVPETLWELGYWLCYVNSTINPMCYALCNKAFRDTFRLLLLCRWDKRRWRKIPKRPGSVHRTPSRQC
To be noted: reference compounds; read-out: Ki of reference compounds in the M1 binding assay; cited from earlier work.

The target of assay [2] is T2, human recombinant M2 expressed in CHO cells (Homo sapiens, UniProt P08172).
T2 construct: purchased PerkinElmer, Inc., Wellesley, Mass; host or cells: CHO cells
T2 sequence (P08172 1-466): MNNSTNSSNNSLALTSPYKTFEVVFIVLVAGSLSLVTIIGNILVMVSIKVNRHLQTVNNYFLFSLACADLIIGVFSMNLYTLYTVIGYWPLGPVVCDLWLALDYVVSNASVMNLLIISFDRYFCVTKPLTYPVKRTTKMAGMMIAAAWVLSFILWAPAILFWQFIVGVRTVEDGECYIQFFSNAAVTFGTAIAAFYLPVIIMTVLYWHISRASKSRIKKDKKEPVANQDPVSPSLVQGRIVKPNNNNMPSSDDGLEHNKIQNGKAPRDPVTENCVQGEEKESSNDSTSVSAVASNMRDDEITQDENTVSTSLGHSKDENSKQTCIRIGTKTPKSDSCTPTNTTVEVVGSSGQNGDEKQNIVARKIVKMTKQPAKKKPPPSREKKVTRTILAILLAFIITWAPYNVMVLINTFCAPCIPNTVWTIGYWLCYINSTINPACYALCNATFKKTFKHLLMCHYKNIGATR
Description: M2 muscarinic receptor binding assay. The following applies: Table 7A, M1 M2 M3.

Assay [3] addresses T1, human recombinant M1 expressed in CHO cells. Briefly: M1 muscarinic receptor binding assay. The following applies: Table 7A, first line of column M1 M2 M3.
The target of assay [4] is T3, histamine H1 receptor (bovine) (Bos taurus, UniProt P30546).
T3 construct: the receptors were obtained from bovine cerebellar membrane tissue; from tissue; host or cells: bovine cerebellar membranes
Description: Histamine H1 binding assay, bovine cerebellar membranes, [3H]pyrilamine. The following applies: Table 7A; Ki in nM.

The target of assay [5] is T4, human recombinant M3 expressed in CHO cells (Homo sapiens, UniProt P20309).
T4 construct: purchased PerkinElmer, Inc., Wellesley, Mass; host or cells: CHO cells
Briefly: M3 muscarinic receptor binding assay. To be noted: Table 7A, third line of column M1 M2 M3.

The subject of assay [6] is adult, male Wistar rats. Description: Sleep-wakefulness monitoring (SCORE-2000, EEG/EMG) in rats. It counts as in vivo, rat. To be noted: minutes; for LONGEST UNINTERRUPTED SLEEP BOUT 10 mg/kg / NREM CUMULATION 10 mg/kg: oral bolus at CT-18, 10 mg/kg; for LONGEST UNINTERRUPTED SLEEP BOUT 30 mg/kg / NREM CUMULATION 30 mg/kg: oral bolus at CT-18, 30 mg/kg. The method, then:
Sleep-wakefulness, locomotor activity and body temperature are monitored in male Wistar rats treated with a test compound (i.e., olanzapine analog) initially at a concentration of 10 mg/kg. Higher and lower doses are assayed for select compounds (e.g., as high as 45 mg/kg, and as low as necessary to establish a no-effect dose). Treatments are administered at CT-18, the peak of the activity dominated period (6 hours after lights-off), and produced soporific (sleep-inducing) effects characterized by increased non-REM sleep time, increased sleep continuity, but without evidence of REM sleep inhibition or rebound insomnia.
Sleep-wakefulness, locomotor activity and body temperature were monitored in vivo with various compounds of the invention. Adult, male Wistar rats (250 g at time of surgery, Charles River Laboratories, Wilmington Mass.) were anesthetized (2% isoflourane in medical grade oxygen) and surgically prepared with a cranial implant to permit chronic electro-encephalogram (EEG) and electromyogram (EMG) recording. Body temperature and locomotor activity were monitored via a miniature transmitter (Mini-Mitter, Bend, Oreg.) surgically placed in the abdomen. The cranial implant consisted of stainless steel screws (two frontal (+3.2 AP from bregma, ±2.0 ML) and two occipital (−6.9 AP, ±5.5 ML)) for EEG recording. Two Teflon®-coated stainless steel wires were positioned under the nuchal trapezoid muscles for EMG recording. All leads were soldered to a miniature connector prior to surgery, and gas sterilized in ethylene oxide. The implant assembly was affixed to the skull with dental acrylic. A minimum of three weeks was allowed for surgical recovery.
Each rat was permanently housed in its own individual recording cage located within separate, ventilated compartments of custom-designed stainless steel cabinets. Each cage was enhanced with a filter-top riser and low-torque swivel-commutator. Food and water were available ad libitum. A 24-hr light-dark cycle (12 hours light, 12 hours dark) was maintained throughout the study. Animals were undisturbed for at least 48 hours before and after treatments.
Sleep and wakefulness were determined using “SCORE-2000™” (Hypnion, Worcester, Mass.)—an internet-based sleep-wake and physiological monitoring system. The system monitored amplified EEG (bandpass 1-30 Hz), integrated EMG (bandpass 10-100 Hz), body temperature and non-specific locomotor activity (LMA) via telemetry, and drinking activity, continuously and simultaneously. Arousal states were classified on-line as non-REM (NREM) sleep, REM sleep, wake, or theta-dominated wake every 10 seconds. Total drinking and locomotor activity counts, and body temperature were quantitiated and recorded each minute, using EEG feature extraction and pattern-matching algorithms. […] The classification algorithm used individually-taught EEG-arousal-state templates, plus EMG criteria to differentiate REM sleep from theta-dominated wakefulness, plus behavior-dependent contextual rules (e.g., if the animal was drinking, it is awake). Drinking and locomotor activity intensity (LMA) were recorded every 10 seconds, while body temperature was recorded each minute. Locomotor activity was detected by a telemetry receiver (Mini-Mitter) beneath the cage. Telemetry measures (LMA and body temperature) were not part of the scoring algorithm; thus, sleep-scoring and telemetry data were independent measures.
Compounds were administered at CT-18, the peak of the activity-dominated period, sufficient time was allowed to view the time course of the treatment effect before lights-on (6 hours post-treatment). Compounds were suspended in sterile 0.25% or 0.5% methylcellulose (1-2 ml/kg). Treatments were administered orally as a bolus.
A parallel group study design was employed. […]

For assay [7], the target named is D1 (h) (Homo sapiens, UniProt P21728). Briefly: Dopamine D1 (human recombinant) binding assay. To be noted: Table 7A; unit inferred. The method, then:
Dopamine, D1 (human recombinant) binding assay was performed according to published procedures. See, e.g., Jarvie, et al. J. Recept Res., 13(1-4): 573-90 (1993); and Billard, et al. Life Sciences, 35(18): 1885-93 (1984), with modifications

Assay [8] has as its target 5HT2a (rat) (Rattus norvegicus, UniProt P14842). Briefly: 5HT2a (rat) binding assay. The following applies: Table 7A; unit inferred.
Assay [9] addresses D2 (h) (Homo sapiens, UniProt P14416). Briefly: Dopamine D2 binding assay. To be noted: Table 7A; unit inferred.
The target in assay [10] is T5, 5HT2a (hctx) (Homo sapiens, UniProt P28223).
T5 construct: (hctx); from tissue; host or cells: human cortex (my reading of 'hctx')
Description: 5HT2a (hctx) binding assay. To be noted: Table 7B; unit inferred.

Assay [11] has as its target T6, H1 (hr) (Homo sapiens, UniProt P35367).
T6 construct: Novascreen, MDS, Cerep (assay providers)
Briefly: H1 (hr) Novascreen binding assay. To be noted: Table 7A; Ki in nM. The method, then: Binding assays were performed using various sleep-inducing agents and derivatives selected from those listed in Table 1 in competitive binding assays with known standards for the H1 histamine receptor, and the M1, M2, and M3 muscarinic receptors, alpha 1 and alpha 2 receptors, D1 and D2 receptors, 5HT2a, 5HT2b, 5HT2c, 5HT2c, and 5HT7 receptors.
The histamine H1 assays are described in Chang, et al., Heterogeneity of Histamine H1-Receptors: Species Variation in [^3H]Mepyramine Binding of Brain Membranes. Journal of Neurochemistry. 32: 1653-1663 (1979); Martinez-Mir, M. I., Pollard, H., Moreau, J., et al. Three Histamine Receptors (H1, H2, and H3) Visualized in the Brain of Human and Non-Human Primates. Brain Res. 526: 322-327 (1990); Haaksma, E. E. J., Leurs, R. and Timmerman, H. Histamine Receptors: Subclasses and Specific Ligands. Pharmac. Ther. 47: 73-104 (1990). The muscarinic assays are described in Buckley, N. J., Bonner, T. I., Buckley, C. M., and Brann, M. R. Antagonist Binding Properties of Five Cloned Muscarinic Receptors Expressed in CHO-K1 Cells. Mol. Pharmacol. 35: 469-476 (1989). The assays were performed according to the preceding articles, with the following modifications. Chemical reagents in the following were obtained from Sigma, St. Louis, Mo.

Assay [12] concerns the target 5HT2b (h) (Homo sapiens, UniProt P41595). Briefly: 5HT2b (h) binding assay. The following applies: Table 7B; unit inferred.

T4 sequence (P20309 whole entry): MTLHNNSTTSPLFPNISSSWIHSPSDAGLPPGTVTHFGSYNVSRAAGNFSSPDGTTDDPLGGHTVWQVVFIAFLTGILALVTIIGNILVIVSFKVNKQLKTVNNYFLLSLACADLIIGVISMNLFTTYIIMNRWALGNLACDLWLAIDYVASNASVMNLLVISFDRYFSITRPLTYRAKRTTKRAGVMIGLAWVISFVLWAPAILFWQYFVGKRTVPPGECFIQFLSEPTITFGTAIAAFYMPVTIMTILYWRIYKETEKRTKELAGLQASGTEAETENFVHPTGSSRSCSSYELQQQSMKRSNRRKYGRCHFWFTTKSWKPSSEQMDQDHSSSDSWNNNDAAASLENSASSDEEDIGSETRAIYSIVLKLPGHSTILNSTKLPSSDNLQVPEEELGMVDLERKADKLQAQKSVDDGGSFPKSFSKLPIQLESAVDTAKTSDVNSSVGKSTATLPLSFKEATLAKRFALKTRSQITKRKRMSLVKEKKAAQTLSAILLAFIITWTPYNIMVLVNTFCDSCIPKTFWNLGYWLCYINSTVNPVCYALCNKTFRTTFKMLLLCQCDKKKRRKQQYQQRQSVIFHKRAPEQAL
T3 sequence (P30546 whole entry): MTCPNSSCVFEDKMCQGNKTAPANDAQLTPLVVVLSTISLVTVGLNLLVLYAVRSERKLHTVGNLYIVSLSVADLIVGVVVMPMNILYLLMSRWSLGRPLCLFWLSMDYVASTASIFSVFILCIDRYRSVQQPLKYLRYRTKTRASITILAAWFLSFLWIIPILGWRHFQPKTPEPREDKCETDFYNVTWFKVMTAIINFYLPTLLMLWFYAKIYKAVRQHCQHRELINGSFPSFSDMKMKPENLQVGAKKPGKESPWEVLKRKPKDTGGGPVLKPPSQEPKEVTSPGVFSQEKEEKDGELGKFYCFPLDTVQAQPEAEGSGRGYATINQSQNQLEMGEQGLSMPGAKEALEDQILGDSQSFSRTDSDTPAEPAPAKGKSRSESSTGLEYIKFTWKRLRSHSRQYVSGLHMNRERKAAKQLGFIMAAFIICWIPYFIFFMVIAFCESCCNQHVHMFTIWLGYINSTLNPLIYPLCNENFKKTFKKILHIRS
T5 sequence (P28223 whole entry): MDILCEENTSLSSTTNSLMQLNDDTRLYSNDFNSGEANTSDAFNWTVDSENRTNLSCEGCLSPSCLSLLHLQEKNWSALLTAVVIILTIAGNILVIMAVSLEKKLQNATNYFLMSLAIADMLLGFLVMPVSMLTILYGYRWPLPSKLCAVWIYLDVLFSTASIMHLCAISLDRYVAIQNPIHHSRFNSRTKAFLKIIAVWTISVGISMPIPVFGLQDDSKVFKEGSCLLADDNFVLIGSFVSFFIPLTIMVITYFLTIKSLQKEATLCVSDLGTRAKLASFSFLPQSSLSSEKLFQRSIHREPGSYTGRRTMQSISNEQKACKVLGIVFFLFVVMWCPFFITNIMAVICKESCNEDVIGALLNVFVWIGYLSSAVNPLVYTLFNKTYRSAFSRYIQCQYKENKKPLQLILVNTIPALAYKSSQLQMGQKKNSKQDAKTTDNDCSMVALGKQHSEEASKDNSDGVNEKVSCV
Sequence of D2 (h) (P14416 whole entry): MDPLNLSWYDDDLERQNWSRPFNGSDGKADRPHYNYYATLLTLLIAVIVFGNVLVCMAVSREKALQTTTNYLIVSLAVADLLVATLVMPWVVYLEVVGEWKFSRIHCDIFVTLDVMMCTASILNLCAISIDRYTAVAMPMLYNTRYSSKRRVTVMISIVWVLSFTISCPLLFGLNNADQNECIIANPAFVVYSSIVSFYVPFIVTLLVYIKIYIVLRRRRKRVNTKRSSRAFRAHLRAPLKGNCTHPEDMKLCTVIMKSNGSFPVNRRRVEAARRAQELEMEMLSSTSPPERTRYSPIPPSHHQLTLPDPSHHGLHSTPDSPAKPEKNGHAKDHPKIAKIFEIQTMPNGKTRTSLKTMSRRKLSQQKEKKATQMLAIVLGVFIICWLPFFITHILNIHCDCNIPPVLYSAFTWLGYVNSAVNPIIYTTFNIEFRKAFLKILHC
Sequence of 5HT2a (rat) (P14842 whole entry): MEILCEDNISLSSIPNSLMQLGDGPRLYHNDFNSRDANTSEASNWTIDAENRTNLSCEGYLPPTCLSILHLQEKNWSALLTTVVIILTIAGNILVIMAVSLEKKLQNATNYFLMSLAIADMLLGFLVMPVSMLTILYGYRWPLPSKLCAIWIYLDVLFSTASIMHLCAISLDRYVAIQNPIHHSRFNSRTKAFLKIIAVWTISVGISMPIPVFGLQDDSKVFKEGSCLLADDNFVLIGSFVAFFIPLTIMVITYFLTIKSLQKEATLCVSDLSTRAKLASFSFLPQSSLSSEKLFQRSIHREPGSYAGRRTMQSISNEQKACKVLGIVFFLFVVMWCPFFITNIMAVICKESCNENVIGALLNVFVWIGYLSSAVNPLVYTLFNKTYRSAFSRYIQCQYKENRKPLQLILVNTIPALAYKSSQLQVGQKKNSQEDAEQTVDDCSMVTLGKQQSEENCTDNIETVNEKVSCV
Sequence of D1 (h) (P21728 whole entry): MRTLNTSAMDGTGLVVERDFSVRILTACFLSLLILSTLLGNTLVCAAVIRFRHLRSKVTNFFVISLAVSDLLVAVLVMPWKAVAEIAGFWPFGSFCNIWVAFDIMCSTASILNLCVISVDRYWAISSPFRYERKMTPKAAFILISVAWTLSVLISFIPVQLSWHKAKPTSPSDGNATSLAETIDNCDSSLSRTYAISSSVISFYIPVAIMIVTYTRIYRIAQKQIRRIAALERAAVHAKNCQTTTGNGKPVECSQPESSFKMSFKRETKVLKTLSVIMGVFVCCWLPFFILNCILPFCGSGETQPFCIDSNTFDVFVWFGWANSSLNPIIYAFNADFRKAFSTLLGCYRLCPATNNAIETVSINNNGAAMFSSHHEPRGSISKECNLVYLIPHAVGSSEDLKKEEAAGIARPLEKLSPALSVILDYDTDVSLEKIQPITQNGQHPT
Sequence of 5HT2b (h) (P41595 whole entry): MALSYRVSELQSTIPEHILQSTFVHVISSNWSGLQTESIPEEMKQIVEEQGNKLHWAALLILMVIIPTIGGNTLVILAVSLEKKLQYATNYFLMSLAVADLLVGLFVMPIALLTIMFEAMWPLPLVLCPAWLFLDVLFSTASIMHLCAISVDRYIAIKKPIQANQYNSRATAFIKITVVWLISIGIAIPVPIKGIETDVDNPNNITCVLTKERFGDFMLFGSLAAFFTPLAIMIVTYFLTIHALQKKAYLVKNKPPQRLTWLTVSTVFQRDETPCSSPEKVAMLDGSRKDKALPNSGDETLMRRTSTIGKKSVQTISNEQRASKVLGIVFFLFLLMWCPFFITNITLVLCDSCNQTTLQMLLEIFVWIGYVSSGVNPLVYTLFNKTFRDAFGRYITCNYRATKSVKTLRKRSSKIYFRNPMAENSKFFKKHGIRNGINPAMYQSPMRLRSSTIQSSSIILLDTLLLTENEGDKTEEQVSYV
T6 sequence (P35367 whole entry): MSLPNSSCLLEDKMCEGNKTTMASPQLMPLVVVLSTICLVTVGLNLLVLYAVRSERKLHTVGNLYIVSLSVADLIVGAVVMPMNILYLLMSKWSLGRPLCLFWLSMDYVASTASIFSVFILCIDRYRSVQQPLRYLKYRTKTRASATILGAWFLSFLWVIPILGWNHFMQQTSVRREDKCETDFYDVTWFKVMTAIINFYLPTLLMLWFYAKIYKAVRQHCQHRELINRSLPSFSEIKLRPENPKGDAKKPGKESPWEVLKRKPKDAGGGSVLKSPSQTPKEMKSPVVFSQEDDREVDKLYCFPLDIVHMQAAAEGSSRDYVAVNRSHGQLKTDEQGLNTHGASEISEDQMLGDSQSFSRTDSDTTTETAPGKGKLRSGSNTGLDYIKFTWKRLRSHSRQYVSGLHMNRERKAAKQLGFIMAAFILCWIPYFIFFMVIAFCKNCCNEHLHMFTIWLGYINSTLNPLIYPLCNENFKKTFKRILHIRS

One may read the Ki as the dissociation constant of the complex between target and ligand, obtained from inhibition or displacement. In the case of `C[N+]1(C)CCC(OC(=O)C(c2ccccc2)c2ccccc2)CC1` [4-DAMP methiodide], the Ki in assay [1] was 0.00027 µM.

`CC(C)(CN1CCN(C2=Nc3ccccc3Nc3sccc32)CC1)C(=O)O` [Compound 1]: the Ki in [2] is more than 10 µM. Besides, in assay [3], the Ki is more than 10 µM. This compound also registered a Ki in assay [4] of 2310 nM. In assay [5], the Ki is more than 10 µM. For the same compound, in [6], the “LONGEST UNINTERRUPTED SLEEP BOUT 10 mg/kg” value was -7.0 ± 2.4 min, the “NREM CUMULATION 10 mg/kg” value stood at 6 ± 6 min, the “LONGEST UNINTERRUPTED SLEEP BOUT 30 mg/kg” value is 4.1 ± 2.1 min and the “NREM CUMULATION 30 mg/kg” value was determined as 12 ± 5 min.

Regarding `Cc1ccc2c(c1)N=C(N1CCN(CC(C)(C)C(=O)O)CC1)c1cc(C)sc1N2` [Compound 52], in [6], the “LONGEST UNINTERRUPTED SLEEP BOUT 10 mg/kg” value turned out to be 5.9 ± 2.3 min and the “NREM CUMULATION 10 mg/kg” value came out at 25 ± 5 min.

As for `Cc1cc2c(s1)Nc1ccccc1N=C2N1CCN(CC(C)(C)C(=O)NS(C)(=O)=O)CC1` [Compound 89], the Ki is more than 10 µM in [2]; more than 10 µM in [3]; 139 nM in assay [4]; 6.5 µM in [7]; 0.0295 µM in assay [8]; more than 10 µM in [5]. Moreover, the Ki in assay [9] came out at 0.927 µM; in [10], 1 µM. Further, in assay [6], the “LONGEST UNINTERRUPTED SLEEP BOUT 10 mg/kg” value worked out at 5.7 ± 1.8 min. Moreover, the “NREM CUMULATION 10 mg/kg” value in [6] turned out to be 14 ± 7 min. Besides, the “LONGEST UNINTERRUPTED SLEEP BOUT 30 mg/kg” value in assay [6] came to 13.6 ± 2.7 min. Besides, in [6], the “NREM CUMULATION 30 mg/kg” value came to 37 ± 6 min.

In the case of `Cc1cc2c(s1)Nc1ccccc1N=C2N1CCN(CCCC(=O)O)CC1` [Compound 93], in assay [6], the “LONGEST UNINTERRUPTED SLEEP BOUT 10 mg/kg” value was -3.0 ± 2.8 min, the “NREM CUMULATION 10 mg/kg” value turned out to be 16 ± 6 min, the “LONGEST UNINTERRUPTED SLEEP BOUT 30 mg/kg” value came out at 2.0 ± 1.5 min and the “NREM CUMULATION 30 mg/kg” value was 10 ± 5 min.

Turning to `Cc1ccc2c(c1)Nc1sc(C)cc1C(N1CCN(CC(C)(C)C(=O)O)CC1)=N2` [Compound 95], the Ki in assay [11] is 200 nM; in assay [12] it was 0.24 µM; in assay [9], 0.97 µM; in assay [10] it was 0.028 µM. Besides, the “LONGEST UNINTERRUPTED SLEEP BOUT 10 mg/kg” value in assay [6] amounted to 15.8 ± 5.2 min. For the same compound, in assay [6], the “NREM CUMULATION 10 mg/kg” value stood at 43 ± 5 min.

On to `Cc1ccc2c(c1)Nc1sc(C)cc1C(N1CCN(CCC(=O)O)CC1)=N2` [Compound 97], for which, in assay [6], the “LONGEST UNINTERRUPTED SLEEP BOUT 10 mg/kg” value was -3.6 ± 2.6 min and the “NREM CUMULATION 10 mg/kg” value was 7 ± 3 min.

`COc1ccc2c(c1)Nc1sc(C)cc1C(N1CCN(CC(C)(C)C(=O)O)CC1)=N2` [Compound 98]: in assay [6], the “LONGEST UNINTERRUPTED SLEEP BOUT 10 mg/kg” value is -6.2 ± 2.7 min and the “NREM CUMULATION 10 mg/kg” value worked out at 12 ± 7 min.

Turning to `Cc1cc2c(s1)Nc1cc(F)ccc1N=C2N1CCN(CC(C)(C)C(=O)O)CC1` [Compound 101], in assay [6], the “LONGEST UNINTERRUPTED SLEEP BOUT 10 mg/kg” value came out at 5.9 ± 2.4 min and the “NREM CUMULATION 10 mg/kg” value came out at 51 ± 8 min.
